Data published in US6232294A, “Neuro-function regulatory agent” (Kabushiki Kaisha Hayashibara Seibutsu Kagaku Kenkyujo, priority 1997, dated 2001).

How the values were obtained:
[1] = Clinical test in volunteers with chronic fatigue syndrome or slight depression; type: in vivo, human; settings: experiment conducted similarly with vitamin P
Protocol: A medical technologist conducted the clinical experiment and 24 hours after the final administration asked the therapeutic effect and the side effects of the volunteers, and also asked the therapeutic effect and side effects of the volunteers on the basis of the relief of feeling of fatigue, malaise, loss of appetite, and insomnia, which were accompanied by the diseases. The therapeutic effect was evaluated based on four ranks; "very effective", "effective", "unchanged",and "worsened". The effectivity was expressed by a percentage of the number of volunteers, who answered "very effective" and "effective", to the total number of volunteers.

[2] = Acute toxicity test; settings: dose up to about 16 g per kg mouse (maximum challenged), intraperitoneal or oral, observed for a week
Protocol: An adequate amount of "TREHAOSE®" , a crystalline trehalose powder commercialized by Hayashibara Shoji, Inc., Okayama, Japan, was dissolved in physiological saline containing 5 w/w % gum arabic, and the solution was sterilized in usual manner and intraperitoneally injected to ddy-mice, 20-25 g weight, in a group of 10 mice, or orally administered to the mice by using a stomach sonde. […] In parallel similar experiments were conducted using as glycosyl vitamin P "αG HESPERIDIN PA" with a total hesperidin content of 74-78%, d.s.b., a glycosyl hesperidin power commercialized by Hayashibara Shoji, Inc., Okayama, Japan, and "αG RUTIN PS" with a total rutin content of 80-82%, d.s.b., a glycosyl rutin powder commercialized by Hayashibara Shoji, Inc., Okayama, Japan.

Molecule | Effect as compared with control (in words) [1] | Mortality [2]
vitamin P | no significant effect was found as compared with control | 
OC[C@H]1O[C@H](O[C@H]2O[C@H](CO)[C@@H](O)[C@H](O)[C@H]2O)[C@H](O)[C@@H](O)[C@@H]1O [TREHAOSE®, α,α-trehalose] |  | no mouse died
